According to ChEMBL document CHEMBL1138378, “Halogenation of 4-hydroxy-3-methoxybenzyl thiourea TRPV1 agonists showed enhanced antagonism to capsaicin” (Bioorg Med Chem Lett, 2007):

Key:
[1] = molecular target: T1, Transient receptor potential cation channel subfamily V member 1 (Rattus norvegicus, UniProt O35433); test: Displacement of [3H]RTX from rat TRPV1 expressed in CHO cells; assay type: cell-based
[2] = molecular target: Transient receptor potential cation channel subfamily V member 1 (Rattus norvegicus) (UniProt O35433); test: Agonist activity at rat TRPV1 expressed in CHO cells assessed as maximal calcium uptake relative to capsaicin; assay type: functional, cell-based
Sequence of Transient receptor potential cation channel subfamily V member 1 (Rattus norvegicus) (O35433 whole entry): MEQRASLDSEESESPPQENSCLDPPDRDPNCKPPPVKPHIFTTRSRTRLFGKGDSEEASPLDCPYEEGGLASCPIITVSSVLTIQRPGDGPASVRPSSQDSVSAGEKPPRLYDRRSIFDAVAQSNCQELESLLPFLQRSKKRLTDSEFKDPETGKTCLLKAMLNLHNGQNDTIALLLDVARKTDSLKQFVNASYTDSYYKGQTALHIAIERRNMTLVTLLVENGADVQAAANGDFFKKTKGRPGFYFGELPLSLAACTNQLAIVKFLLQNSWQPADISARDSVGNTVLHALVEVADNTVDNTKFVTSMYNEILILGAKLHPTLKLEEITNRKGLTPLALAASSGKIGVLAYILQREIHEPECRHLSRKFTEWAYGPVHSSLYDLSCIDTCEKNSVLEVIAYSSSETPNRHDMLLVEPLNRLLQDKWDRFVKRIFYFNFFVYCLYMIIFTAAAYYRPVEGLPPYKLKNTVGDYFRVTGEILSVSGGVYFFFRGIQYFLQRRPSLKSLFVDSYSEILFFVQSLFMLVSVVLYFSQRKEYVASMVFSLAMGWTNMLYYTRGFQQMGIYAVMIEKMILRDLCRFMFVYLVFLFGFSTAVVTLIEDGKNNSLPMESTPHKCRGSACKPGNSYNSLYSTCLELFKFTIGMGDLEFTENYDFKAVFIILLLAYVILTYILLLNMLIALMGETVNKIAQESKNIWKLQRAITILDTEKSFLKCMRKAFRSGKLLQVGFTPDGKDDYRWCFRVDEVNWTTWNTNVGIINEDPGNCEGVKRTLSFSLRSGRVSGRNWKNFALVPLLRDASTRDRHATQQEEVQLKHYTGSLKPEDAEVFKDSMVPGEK

[3] = molecular target: Transient receptor potential cation channel subfamily V member 1 (Rattus norvegicus) (UniProt O35433); test: (§1) Antagonist activity at rat TRPV1 expressed in CHO cells assessed as inhibition of calcium uptake; assay type: functional, cell-based; set-up: concentration or dose not given beside the values; conditions: concentration not given here
[4] = molecular target: T1, Transient receptor potential cation channel subfamily V member 1; test: as §1; assay type: functional, cell-based
[5] = molecular target: T1, Transient receptor potential cation channel subfamily V member 1; test: Agonist activity at rat TRPV1 expressed in CHO cells assessed as maximal calcium uptake; assay type: functional, cell-based

T1 sequence (O35433 whole entry): as above

| Structure (SMILES) | Ki [1] [nM] | Activity [2] [%] | inhibition [3] [%] | Ki [4] [nM] | EC50 [5] [nM] |
| --- | --- | --- | --- | --- | --- |
| COc1cc(CNC(=S)NC(COC(=O)C(C)(C)C)Cc2ccc(C(C)(C)C)cc2)c(Cl)cc1O (configuration not stated) | 41.5 | 94 | 11 |  |  |
| COc1cc(CNC(=S)NCc2ccc(C(C)(C)C)cc2)c(I)cc1O | 130 |  |  | 156 |  |
| COc1cc(CNC(=S)NCC(COC(=O)C(C)(C)C)Cc2ccc(C)c(C)c2)c(I)cc1O (configuration not stated) | 18.9 |  |  | 23.1 |  |
| COc1cc(CNC(=S)NC(COC(=O)C(C)(C)C)Cc2ccc(C(C)(C)C)cc2)c(Br)cc1O (configuration not stated) | 74.9 | 41 | 51 |  |  |
| COc1cc(CNC(=S)NCC(COC(=O)C(C)(C)C)Cc2ccc(C(C)(C)C)cc2)c(Cl)cc1O (configuration not stated) | 12.2 | 24 | 71 |  |  |
| COc1cc(CNC(=S)NCC(COC(=O)C(C)(C)C)Cc2ccc(C(C)(C)C)cc2)c(Br)cc1O (configuration not stated) | 12.8 |  |  | 55 |  |
| COc1cc(CNC(=S)NCc2ccc(C(C)(C)C)cc2)cc(Cl)c1O | 76 | 5 | 92 |  |  |
| COc1cc(CNC(=S)NC(COC(=O)C(C)(C)C)Cc2ccc(C(C)(C)C)cc2)cc(I)c1O (configuration not stated) | 39.4 |  |  | 178 |  |
| COc1cc(CNC(=S)NC(CCc2ccc(C(C)(C)C)cc2)COC(=O)C(C)(C)C)cc(Br)c1O (configuration not stated) | 143 | 19 | 73 |  |  |
| COc1cc(CNC(=S)NC(CCc2ccc(C(C)(C)C)cc2)COC(=O)C(C)(C)C)ccc1O (configuration not stated) | 36.5 |  |  |  | 21.5 |
| COc1cc(CNC(=S)NC(COC(=O)C(C)(C)C)Cc2ccc(C(C)(C)C)cc2)c(I)cc1O (configuration not stated) | 96 |  |  | 310 |  |
| COc1cc(CNC(=S)NC(COC(=O)C(C)(C)C)Cc2ccc(C(C)(C)C)cc2)cc(Br)c1O (configuration not stated) | 38.2 | 57 | 29 |  |  |
| COc1cc(CNC(=S)NC(CCc2ccc(C(C)(C)C)cc2)COC(=O)C(C)(C)C)c(Br)cc1O (configuration not stated) | 75 |  |  | 76.1 |  |
| COc1cc(CNC(=S)NCc2ccc(C(C)(C)C)cc2)ccc1O | 58.6 |  |  |  | 2.5 |
| COc1cc(CNC(=S)NCC(COC(=O)C(C)(C)C)Cc2ccc(C)c(C)c2)cc(I)c1O (configuration not stated) | 232 |  |  | 121 |  |
| COc1cc(CNC(=S)NCC(COC(=O)C(C)(C)C)Cc2ccc(C)c(C)c2)cc(Cl)c1O (configuration not stated) | 30.9 | 93 |  |  |  |
| COc1cc(CNC(=S)NCC(COC(=O)C(C)(C)C)Cc2ccc(C)c(C)c2)c(Br)cc1O (configuration not stated) | 19.9 | 13 | 91 |  |  |
| COc1cc(CNC(=S)NC(CCc2ccc(C)c(C)c2)COC(=O)C(C)(C)C)c(Cl)cc1O (configuration not stated) | 103 | 60 | 45 |  |  |
| COc1cc(CNC(=S)NCC(COC(=O)C(C)(C)C)Cc2ccc(C(C)(C)C)cc2)cc(I)c1O (configuration not stated) | 45 |  |  | 103 |  |
| COc1cc(CNC(=S)NC(CCc2ccc(C)c(C)c2)COC(=O)C(C)(C)C)c(Br)cc1O (configuration not stated) | 109 | 13 | 75 |  |  |

| Structure (SMILES) | Ki [1] [nM] | Activity [2] [%] | inhibition [3] [%] | Ki [4] [nM] | EC50 [5] [nM] |
| --- | --- | --- | --- | --- | --- |
| COc1cc(CNC(=S)NC(CCc2ccc(C(C)(C)C)cc2)COC(=O)C(C)(C)C)cc(I)c1O (configuration not stated) | 214 |  |  | 525 |  |
| COc1cc(CNC(=S)NCc2ccc(C(C)(C)C)cc2)c(Cl)cc1O | 36.9 | 33 | 81 |  |  |
| COc1cc(CNC(=S)NC(CCc2ccc(C)c(C)c2)COC(=O)C(C)(C)C)cc(Br)c1O (configuration not stated) | 102 | 50 | 59 |  |  |
| COc1cc(CNC(=S)NC(CCc2ccc(C)c(C)c2)COC(=O)C(C)(C)C)c(I)cc1O (configuration not stated) | 140 |  |  | 176 |  |
| COc1cc(CNC(=S)NCC(COC(=O)C(C)(C)C)Cc2ccc(C(C)(C)C)cc2)cc(Br)c1O (configuration not stated) | 18.8 | 9 | 85 |  |  |
| COc1cc(CNC(=S)NCc2ccc(C(C)(C)C)cc2)c(Br)cc1O | 42.1 |  |  | 30.3 |  |
| COc1cc(CNC(=S)NCC(COC(=O)C(C)(C)C)Cc2ccc(C)c(C)c2)cc(Br)c1O (configuration not stated) | 33.1 | 29 | 70 |  |  |
| COc1cc(CNC(=S)NCc2ccc(C(C)(C)C)cc2)cc(I)c1O | 342 |  |  | 176 |  |
| COc1cc(CNC(=S)NC(CCc2ccc(C(C)(C)C)cc2)COC(=O)C(C)(C)C)c(I)cc1O (configuration not stated) | 79 |  |  | 69 |  |
| COc1cc(CNC(=S)NCC(COC(=O)C(C)(C)C)Cc2ccc(C(C)(C)C)cc2)c(I)cc1O (configuration not stated) | 13.3 |  |  | 71 |  |
| COc1cc(CNC(=S)NCC(COC(=O)C(C)(C)C)Cc2ccc(C(C)(C)C)cc2)cc(Cl)c1O (configuration not stated) | 21.3 | 49 | 37 |  |  |
| COc1cc(CNC(=S)NCc2ccc(C(C)(C)C)cc2)cc(Br)c1O | 51.6 |  |  | 49 |  |
| COc1cc(CNC(=S)NC(CCc2ccc(C)c(C)c2)COC(=O)C(C)(C)C)cc(I)c1O (configuration not stated) | 127 |  |  | 115 |  |
| COc1cc(CNC(=S)NC(CCc2ccc(C)c(C)c2)COC(=O)C(C)(C)C)cc(Cl)c1O (configuration not stated) | 86 | 88 | 16 |  |  |
| COc1cc(CNC(=S)NC(CCc2ccc(C(C)(C)C)cc2)COC(=O)C(C)(C)C)c(Cl)cc1O (configuration not stated) | 79 |  |  | 72.2 |  |
| COc1cc(CNC(=S)NC(CCc2ccc(C(C)(C)C)cc2)COC(=O)C(C)(C)C)cc(Cl)c1O (configuration not stated) | 122 | 44 | 47 |  |  |
| CCCCCCCCC(=O)NCc1cc(OC)c(O)cc1I | 1320 |  |  | 127 |  |
| COc1cc(CNC(=S)NC(COC(=O)C(C)(C)C)Cc2ccc(C(C)(C)C)cc2)cc(Cl)c1O (configuration not stated) | 28.8 |  |  |  | 60 |
| COc1cc(CNC(=S)NC(CCc2ccc(C)c(C)c2)COC(=O)C(C)(C)C)ccc1O (configuration not stated) | 56 |  |  |  | 14.7 |
| COc1cc(CNC(=S)NCC(COC(=O)C(C)(C)C)Cc2ccc(C)c(C)c2)c(Cl)cc1O (configuration not stated) | 24.2 | 63 | 41 |  |  |
